According to patent US20260132129A1 (Genesis Therapeutics, Inc., priority 2022, published 2026):

Target: T1, PI3Kα H1047R (T47D cells) (Homo sapiens, UniProt P42336, H1047R)
T1 construct: endogenous in cells; host or cells: T47D cells
Experiment: PI3Kα cellular assay: pAKT HTRF in T47D cells after EGF stimulation
Type: cell-based
Settings: for IC50: T47D cells (PI3Kα H1047R), pAKT S473 HTRF
Method in brief: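 pAKT read by HTRF in lysates of EGF-stimulated (20 ng/mL, 10 min) T47D H1047R cells. Before stimulation, serum-starved cells (16 h) received compound for 1 h at 37 °C, dosed from 10,000 nM down to 0.5 nM in 3-fold steps.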

[1] = selectivity of T47D (H1047R) over SKBR3 (WT) pAKT IC50
[2] = selectivity T47D (H1047R) over SKBR3 (WT), pAKT HTRF
[3] = 1 hr compound, 20 ng/ml EGF 10 min

T1 sequence (P42336 whole entry H1047R): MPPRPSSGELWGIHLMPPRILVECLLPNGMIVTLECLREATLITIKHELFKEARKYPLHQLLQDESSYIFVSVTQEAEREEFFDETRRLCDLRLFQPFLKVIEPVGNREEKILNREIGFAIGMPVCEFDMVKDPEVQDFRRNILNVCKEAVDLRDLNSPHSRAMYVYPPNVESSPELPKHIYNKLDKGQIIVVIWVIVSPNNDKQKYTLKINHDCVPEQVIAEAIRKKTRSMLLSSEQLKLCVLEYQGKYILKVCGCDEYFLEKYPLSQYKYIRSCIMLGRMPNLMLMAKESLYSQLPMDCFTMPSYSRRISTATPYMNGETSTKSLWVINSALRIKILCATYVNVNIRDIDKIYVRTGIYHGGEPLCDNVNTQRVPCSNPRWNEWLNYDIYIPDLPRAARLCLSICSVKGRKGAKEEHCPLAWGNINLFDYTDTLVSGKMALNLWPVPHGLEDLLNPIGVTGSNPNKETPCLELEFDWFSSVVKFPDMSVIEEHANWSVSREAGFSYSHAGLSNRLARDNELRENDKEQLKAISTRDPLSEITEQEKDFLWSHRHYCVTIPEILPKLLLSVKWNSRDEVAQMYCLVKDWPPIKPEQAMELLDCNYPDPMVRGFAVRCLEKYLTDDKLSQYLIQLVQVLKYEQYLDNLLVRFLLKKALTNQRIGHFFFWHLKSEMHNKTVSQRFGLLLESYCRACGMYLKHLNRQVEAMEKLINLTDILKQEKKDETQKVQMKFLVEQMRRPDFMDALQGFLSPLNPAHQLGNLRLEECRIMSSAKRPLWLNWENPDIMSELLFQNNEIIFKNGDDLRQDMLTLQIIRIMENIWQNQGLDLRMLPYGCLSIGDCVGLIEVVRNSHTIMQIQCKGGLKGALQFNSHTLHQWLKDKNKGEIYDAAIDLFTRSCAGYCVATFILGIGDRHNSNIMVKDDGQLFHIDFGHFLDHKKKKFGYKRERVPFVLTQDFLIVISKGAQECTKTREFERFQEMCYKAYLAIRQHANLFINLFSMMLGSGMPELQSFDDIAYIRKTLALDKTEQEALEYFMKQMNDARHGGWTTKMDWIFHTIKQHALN
T1 sequence (P27986 whole entry partner): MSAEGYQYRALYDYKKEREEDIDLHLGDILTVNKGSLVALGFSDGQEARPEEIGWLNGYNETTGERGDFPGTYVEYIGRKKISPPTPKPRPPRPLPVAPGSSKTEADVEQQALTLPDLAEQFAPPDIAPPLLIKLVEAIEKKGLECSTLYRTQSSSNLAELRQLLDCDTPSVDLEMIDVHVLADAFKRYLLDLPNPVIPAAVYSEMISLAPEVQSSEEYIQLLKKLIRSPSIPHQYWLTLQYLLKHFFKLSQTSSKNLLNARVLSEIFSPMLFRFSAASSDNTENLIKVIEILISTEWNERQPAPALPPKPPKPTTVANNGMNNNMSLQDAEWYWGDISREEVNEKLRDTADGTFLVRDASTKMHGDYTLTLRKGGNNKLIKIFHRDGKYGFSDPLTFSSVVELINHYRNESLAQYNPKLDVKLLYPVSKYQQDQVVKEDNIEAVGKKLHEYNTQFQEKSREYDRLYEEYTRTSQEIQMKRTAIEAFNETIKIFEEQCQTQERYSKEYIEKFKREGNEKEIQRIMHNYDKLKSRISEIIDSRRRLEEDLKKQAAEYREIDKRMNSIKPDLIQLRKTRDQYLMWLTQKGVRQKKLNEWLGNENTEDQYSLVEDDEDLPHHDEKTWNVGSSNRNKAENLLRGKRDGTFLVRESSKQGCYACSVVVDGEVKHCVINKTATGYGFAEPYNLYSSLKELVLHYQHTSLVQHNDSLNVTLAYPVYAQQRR

Row | Compound | IC50 (EGF stimulation) [µM] | T47D pAKT S473 HTRF IC50 (H1047R): T47D (H1047R) selectivity over SKBR3 (WT) [1] | T47D pAKT S473 HTRF IC50 (H1047R): T47D (H1047R) selectivity over SKBR3 (WT) [2] | IC50 [3] [µM]
1 | Cc1cc([C@@H](C)NC2=C(C(=O)O)C=CCC2)c2nc(-c3ccc(CC4CCN(C(=O)C5CC5)CC4)nc3)cc(=O)n2c1 [Compound 783] | > 2 | C (C denotes ≤5-fold) | – | –
2 | Cc1cc([C@H](C)Nc2ccccc2C(=O)O)c2nc(-c3ccc4c(c3)c(C)nn4C)cc(=O)n2c1 (single isomer, unassigned) [Compound 740] | < 0.1 | A (A denotes >20-fold) | – | –
3 | Cc1cc([C@@H](C)Nc2ccccc2S(N)(=O)=O)c2nc(-c3ccc4c(c3)c(C)cn4C3CC3)c(C)c(=O)n2c1 [Compound 995] | > 2 | C (C denotes ≤5-fold) | – | –
4 | Cc1cc(C(C)Nc2cccc3onc(O)c23)c2nc(-c3cccc(F)c3)c(C)c(=O)n2c1 (stereo not drawn) [Compound 1375] | > 2 | – | C (C denotes ≤5-fold) | –
5 | Cc1cc([C@H](C)Nc2ccccc2C(=O)O)c2nc(N3CCN(C(=O)CN)CC3)cc(=O)n2c1 [Compound 528] | – | – | C (C denotes ≤5-fold) | > 2
6 | Cc1cc([C@@H](C)Nc2ccccc2CC(=O)O)c2nc(N3CCOCC3)cc(=O)n2c1 [Compound 157] | – | – | C (C denotes ≤5-fold) | > 2
7 | Cc1cc([C@H](C)Nc2ccccc2C(=O)O)c2nc(N3CCC(C)CC3)cc(=O)n2c1 [Compound 360] | – | – | C (C denotes ≤5-fold) | > 2
8 | Cc1cc([C@@H](C)Nc2ccccc2C(=O)O)c2nc(-c3ccc4[nH]c(=O)sc4c3)c(C)c(=O)n2c1 [Compound 945] | < 0.1 | A (A denotes >20-fold) | – | –
9 | Cc1cc([C@@H](C)Nc2ccccc2C(=O)O)c2nc(N3CCOC[C@H]3C)cc(=O)n2c1 [Compound 296] | – | – | C (C denotes ≤5-fold) | > 2
10 | Cc1cc([C@H](C)Nc2ccccc2C(=O)O)c2nc(N3CCS(=O)(=O)CC3)cc(=O)n2c1 [Compound 139] | – | – | C (C denotes ≤5-fold) | > 2
11 | Cc1cc(C(C)Nc2ccccc2C(=O)O)c2nc(-c3ccc4c(c3)c(C)nn4C)cc(=O)n2c1 (stereo not drawn) [Compound 695] | – | A (A denotes >20-fold) | – | –
12 | Cc1cc([C@@H](C)Nc2ccccc2S(N)(=O)=O)c2nc(-c3ccnc(C4CC4)c3)c(C)c(=O)n2c1 [Compound 1095] | > 2 | – | C (C denotes ≤5-fold) | –
13 | Cc1cc([C@@H](C)Nc2ccccc2C(=O)O)c2nc(-c3ccc4[nH]c(=O)[nH]c4c3)cc(=O)n2c1 [Compound 499] | – | – | A (A denotes >20-fold) | 0.1 to 0.5
14 | Cc1cc([C@@H](C)Nc2ccccc2C(=O)O)c2nc(-c3cc(C)c4[nH]c(=O)[nH]c4c3)cc(=O)n2c1 [Compound 497] | – | – | B (B denotes 20-fold≥value>5-fold) | 0.5 to 2
15 | Cc1cc([C@H](C)Nc2ccccc2)c2nc(-c3ccc(F)cc3)c(C)c(=O)n2c1 [Compound 1124] | > 2 | – | C (C denotes ≤5-fold) | –
16 | Cc1cc([C@H](C)Nc2ccccc2C(=O)O)c2nc(N3CC4(CCNCC4)C3)c(C)c(=O)n2c1 [Compound 917] | – | C (C denotes ≤5-fold) | – | –
17 | C[C@@H]1C[C@H](C)CN(c2cc(=O)n3cc(C(F)(F)F)cc([C@@H](C)Nc4ccccc4C(=O)O)c3n2)C1 [Compound 1036] | < 0.1 | A (A denotes >20-fold) | – | –
18 | Cc1cc([C@@H](C)Nc2ccccc2C(=O)O)c2nc(-c3c(C)ccc4c3cnn4C)cc(=O)n2c1 [Compound 816] | > 2 | C (C denotes ≤5-fold) | – | –
19 | Cc1cc([C@H](C)Nc2ccccc2C(=O)O)c2nc(-c3cc(C(N)=O)c4[nH]ccc4c3)cc(=O)n2c1 [Compound 754] | > 2 | C (C denotes ≤5-fold) | – | –
20 | Cc1cc([C@H](C)Nc2ccccc2C(=O)O)c2nc([C@H]3CCCOC3)c(C)c(=O)n2c1 [Compound 1282] | > 2 | – | C (C denotes ≤5-fold) | –
21 | Cc1cc(C(C)Nc2ccccc2C(=O)O)c2nc(N3CCN(CCC(N)=O)CC3)cc(=O)n2c1 (stereo not drawn) [Compound 530] | – | – | C (C denotes ≤5-fold) | > 2
22 | Cc1cc([C@@H](C)Nc2cccc3c2OCC(=O)N3)c2nc(N3CCOCC3)cc(=O)n2c1 [Compound 685] | > 2 | C (C denotes ≤5-fold) | – | –

Row | Compound | IC50 (EGF stimulation) [µM] | T47D pAKT S473 HTRF IC50 (H1047R): T47D (H1047R) selectivity over SKBR3 (WT) [1] | T47D pAKT S473 HTRF IC50 (H1047R): T47D (H1047R) selectivity over SKBR3 (WT) [2] | IC50 [3] [µM]
23 | Cc1cc([C@@H](C)Nc2ccccc2C(=O)O)c2nc(-c3ccc(F)cc3)cc(=O)n2c1 (single isomer, unassigned) [Compound 424] | – | – | A (A denotes >20-fold) | < 0.1
24 | CC(=O)N=S(C)(=O)c1ccccc1N[C@@H](C)c1cc(C)cn2c(=O)cc(N3CCOCC3)nc12 (stereo partly drawn) [Compound 828] | 0.5 to 2 | B (B denotes 20-fold≥value>5-fold) | – | –
25 | Cc1cc([C@@H](C)Nc2ccccc2C(=O)O)c2nc(-c3ccc(C4CC4)nc3)cc(=O)n2c1 [Compound 1111] | < 0.1 | – | A (A denotes >20-fold) | –
26 | CC(Nc1ccccc1C(=O)O)c1cc(C#N)cn2c(=O)cc(N3CCOCC3)nc12 (stereo not drawn) [Compound 273] | – | – | C (C denotes ≤5-fold) | > 2
27 | Cc1cc(C(C)Nc2ccccc2C(=O)O)c2nc(-c3cnc(N)nc3)cc(=O)n2c1 (stereo not drawn) [Compound 145] | – | – | B (B denotes 20-fold≥value>5-fold) | 0.5 to 2
28 | C=CC(=O)Nc1ccc(C(=O)O)c(N[C@H](C)c2cc(C)cn3c(=O)cc(N4CCOCC4)nc23)c1 [Compound 872] | > 2 | C (C denotes ≤5-fold) | – | –
29 | Cc1cc(C(C)Nc2ccc(C#N)cc2C(=O)O)c2nc(N3CCOCC3)cc(=O)n2c1 (stereo not drawn) [Compound 329] | – | – | C (C denotes ≤5-fold) | > 2
30 | Cc1cc(C(C)Nc2ccccc2C(=O)O)c2nc(N3Cc4ccccc4C3)c(C#N)c(=O)n2c1 (stereo not drawn) [Compound 1160] | < 0.1 | – | A (A denotes >20-fold) | –
31 | Cc1cc([C@H](C)Nc2ccccc2S(N)(=O)=O)c2nc(N3Cc4cccnc4C3)c(C)c(=O)n2c1 [Compound 1324] | – | – | A (A denotes >20-fold) | –
32 | Cc1cc(C(C)Nc2ccnnc2C(=O)O)c2nc(N3CCOCC3)cc(=O)n2c1 (stereo not drawn) [Compound 358] | – | – | C (C denotes ≤5-fold) | > 2
33 | Cc1cc([C@H](C)Nc2ccccc2C(=O)O)c2nc(-c3cnc(C4CCOCC4)nc3)c(C)c(=O)n2c1 [Compound 1297] | > 2 | – | C (C denotes ≤5-fold) | –
34 | CC(=O)N1CCC(c2cc(=O)n3cc(C)cc([C@@H](C)Nc4ccccc4C(=O)O)c3n2)CC1 [Compound 522] | – | – | C (C denotes ≤5-fold) | > 2
35 | Cc1cc([C@@H](C)Nc2ccccc2S(N)(=O)=O)c2nc([C@H]3CCCN(CC(F)F)C3)c(C)c(=O)n2c1 [Compound 1310] | > 2 | – | C (C denotes ≤5-fold) | –
36 | Cc1cc([C@@H](C)Nc2ccccc2C(N)=O)c2nc(-c3cccc(C#N)c3)c(C)c(=O)n2c1 [Compound 1137] | < 0.1 | – | A (A denotes >20-fold) | –
37 | Cc1cc(C(C)Nc2ccccc2C(=O)O)c2nc(-c3ccc4c(c3)CC(F)(F)C4)c(C)c(=O)n2c1 (stereo not drawn) [Compound 833] | 0.1 to 0.5 | A (A denotes >20-fold) | – | –
38 | Cc1cc([C@H](C)Nc2ccccc2-n2nn[nH]c2=O)c2nc(N3CCOCC3)cc(=O)n2c1 [Compound 344] | – | – | C (C denotes ≤5-fold) | > 2
39 | Cc1cc([C@H](C)Nc2cccc3c2C(=O)NCC3)c2nc(N3CCOCC3)cc(=O)n2c1 [Compound 714] | – | C (C denotes ≤5-fold) | – | –
40 | COc1cc(NC(C)c2cc(C)cn3c(=O)cc(N4CCOCC4)nc23)c(C(=O)O)cc1OC (stereo not drawn) [Compound 325] | – | – | C (C denotes ≤5-fold) | > 2
41 | C=CC(=O)Nc1ccc(C(=O)O)c(N[C@@H](C)c2cc(C)cn3c(=O)c(C)c(N4Cc5ccccc5C4)nc23)c1 [Compound 1122] | > 2 | – | C (C denotes ≤5-fold) | –
42 | Cc1cc([C@@H](C)Nc2ccccc2S(N)(=O)=O)c2nc(-c3cccc(C#N)c3)c(C)c(=O)n2c1 [Compound 1034] | < 0.1 | A (A denotes >20-fold) | – | –
43 | Cc1cc([C@H](C)Nc2ccccc2C(=O)O)c2nc(C3CCC(C)(C)CC3)cc(=O)n2c1 [Compound 624] | – | – | C (C denotes ≤5-fold) | > 2
44 | CCn1nc(N)c2c(C)c(-c3cc(=O)n4cc(C)cc([C@H](C)Nc5ccccc5C(=O)O)c4n3)ccc21 [Compound 723] | > 2 | C (C denotes ≤5-fold) | – | –
